Legend:
HCl-aspirin ulcer = experiment: Test D (Inhibition of HCl-aspirin ulcer); type: in vivo, male Sprague-Dawley rats; conditions: length of ulcers vs control; test compound 32 mg/kg orally 30 minutes before aspirin 200 mg/kg in 0.2N HCl; rats
Experimental: Test D (Inhibition of HCl-aspirin ulcer):
Seven male Sprague-Dawley rats, aged 6 weeks and weighing about 200 g were used per group for the study on HCl-aspirin ulcer after the fast for 24 hours. Each of the test compounds (32 mg/kg) suspended in 0.1% methylcellulose solution was administered orally 30 minutes before aspirin administration. Aspirin, suspended in 0.1% methylcellulose solution containing 0.2N HCl, was administered orally at a dose of 200 mg/kg/10 ml. One hour later, the animals were sacrificed and their stomachs were removed. The stomach was then fixed with 2% formalin. The length of ulcers was measured for each animal, and percentage of inhibition was calculated by comparing the mean length of ulcers (mm) in the test animals with that in the control animals.

H2 -receptor = experiment: Test A (H2 -receptor antagonism in isolated guinea-pig atrium); conditions: inhibition of histamine (1×10^-6 g/ml)-induced increase in beating rate, test compound 1×10^-6 g/ml, 30 minutes, 30°C
Experimental: Test A (H2 -receptor antagonism in isolated guinea-pig atrium):
The atrial strip isolated from guinea-pig was suspended under an initial tension 0.3 to 0.6 g in an organ bath containing Tyrode solution at 30°C., aerated 95% O2 -5% CO2 gas. The beating rate and amplitude of contraction of the atrium were recorded by means of a transducer and a polygraph. Histamine (1×10^-6 g/ml) was added to the bathing fluid and the increase in beating rate after dosing was measured. Addition of test compounds (1×10^-6 g/ml) was made 30 minutes after washing out histamine. Inhibitory effect of test compound was calculated by comparing histamine-induced increases in beating rate before and 30 minutes after dosing with the test compounds.

[1] = tested on: Campylobacter pyloridis 8008; experiment: Test C (Anti-microbial activity), agar dilution method; type: cell-based; conditions: Helicobacter pylori, 72 h, Brucella agar plus 5% lysed horse blood, 37° C. for 3 days, 10% CO2, 10^4 cfu/ml
Experimental: Test C (Anti-microbial activity):
In vitro antimicrobial activity was determined by the agar dilution method. Test strain was precultured in Brucella broth Agar containing 5% horse serum at 37° C. for 3 days, and 10^4 cfu/ml were inoculated with a multipoint replicater onto Brucella agar plus 5% lysed horse blood plate containing serial 2-fold dilutions of each drug at 37° C. for 3 days. Incubation was carried out in an atmosphere of 10% CO2. MIC was read after incubation as the lowest drug concentration that inhibited macroscopic colonial growth.

[2] = tested on: histamine-stimulated gastric secretion; experiment: Test B (Gastric secretion from lumen perfused stomach in anesthetized rats); type: in vivo, Male Sprague-Dawley rats; conditions: maximal inhibition of acid output, histamine 3 mg/kg/hr i.v., test compound 1 mg/kg intravenously
Experimental: Test B (Gastric secretion from lumen perfused stomach in anesthetized rats):
Male Sprague-Dawley rats weighing about 250 g were used. Rats were deprived of food but allowed free access to water for 24 hours. The animals were anesthetized with 1.25 g/kg urethane intraperitoneally. The abdomen was opened and the gastric lumen was perfured with saline throughout the experiment. The perfusate was titrated by an autotitrator with 25 mM sodium hydroxide as a titrant. Gastric secretion was stimulated by intravenous infusion with histamine (3 mg/kg/hr). After reaching plateau, test compound (1 mg/kg) was given intravenously. Drug effect was expressed as maximal inhibition by acid output.

Compound | MIC [1] | other results
CCCCNC(N)=Nc1nc(-c2ccc(CNC(C)=O)o2)cs1 [Test Compound (a), 4-(5-Acetylaminomethylfuran-2-yl)-2-(amino)(n-butylamino)methyleneamino!thiazole] |  | Inhibition (%) (HCl-aspirin ulcer): 86.9%
CCCCCCNC(N)=Nc1nc(-c2ccc(CNC(C)=O)o2)cs1 [Test Compound (b), 4-(5-Acetylaminomethylfuran-2-yl)-2-(amino)(n-hexylamino)methyleneamino!thiazole] | 0.1 µg/mL | H2 Antagonism (%) (H2 -receptor): 78.5%
COCCNC(N)=Nc1nc(-c2ccc(CNC(C)=O)o2)cs1 [Test Compound (c), 4-(5-Acetylaminomethylfuran-2-yl)-2-(amino)-(2-methoxyethylamino)methyleneamino!thiazole] |  | Inhibition (%) [2]: 69%
CC(=O)NCc1ccc(-c2csc(N=C(N)NCCc3ccccn3)n2)o1 [Test Compound (d), 4-(5-Acetylaminomethylfuran-2-yl)-2-(amino)-2-(2-pyridyl)ethylamino!methyleneamino!thiazole] | 0.78 µg/mL | 
C=CCNC(N)=Nc1nc(-c2ccc(CNC(C)=O)o2)cs1 [Test Compound (e)] | 0.78 µg/mL | 
